This is an account of results in ChEMBL document CHEMBL1152056, “Targeting radiosensitizers to DNA by minor groove binding: nitroarenes based on netropsin and distamycin” (1993).

A short description of test [1]: Concentration required to kill 50 % of the cells after ca. 7 days aerobic exposure; value ranges from 0.025-0.05. The class given is functional, Cricetulus griseus.
The nature of test [2]: Enhancement ratio was calculated to determine the radiosensitization as the ratio of radiation dose required to kill similar cells in anoxia to those with the compound; at a concentration of 0.05 mM. The class given is functional, Cricetulus griseus.
For a further test, the system named is Nucleic Acid. Put plainly: Concentration required for 50% decrease in fluorescence of ethidium bromide bound to calf thymus DNA. at 600 nm. Type of test: nucleic-acid assay. The conditions noted are these: Bos taurus.
A short description of test [3]: Concentration required to kill 50 % of the cells after ca. 7 days aerobic exposure. The class given is functional, Cricetulus griseus.
Test [4] is described as follows: Enhancement ratio was calculated to determine the radiosensitization as the ratio of radiation dose required to kill similar cells in anoxia to those with the compound; at a concentration of 0.5 mM. Type of test: functional, Cricetulus griseus.
Test [5] in a line: Cellular uptake was calculated as the ratio of intracellular and extracellular concentration in V79 hamster cells. Type of test: functional, Cricetulus griseus.
A short description of test [6]: Enhancement ratio was calculated to determine the radiosensitization as the ratio of radiation dose required to kill similar cells in anoxia to those with the compound; at a concentration of ~5 mM. The class given is functional, Cricetulus griseus.
A short description of test [7]: Concentration required to kill 50 % of the cells after ca. 7 days exposure. The class given is functional, Cricetulus griseus.
A short description of test [8]: Enhancement ratio was calculated to determine the radiosensitization as the ratio of radiation dose required to kill similar cells in anoxia to those with the compound; at a concentration of 1.0 mM. Type of test: functional, Cricetulus griseus.

Take `Cl.Cn1cc(NC(=O)c2ccc([N+](=O)[O-])o2)cc1C(=O)NCCC(=N)N`: the C50 in [1] was 0.025 mM; in the test with Nucleic Acid, 26 µM. Also, the Ratio in test [2] was 1.3.

As for `Cl.Cn1cc(NC(=O)Cn2ccnc2[N+](=O)[O-])cc1C(=O)NCCC(=N)N`, the C50 in the test with Nucleic Acid was 6.8 µM; in [3], above 0.25 mM. In test [4], the Ratio is 1.04.

Turning to `Cl.Cn1cc(NC(=O)c2cc(NC(=O)Cn3ccnc3[N+](=O)[O-])cn2C)cc1C(=O)NCCC(=N)N`, the C50 in the test with Nucleic Acid was 16 µM; in [3], above 0.25 mM. The Ratio in test [4] is 1.04. The “Ratio (Ci/Ce)” value in test [5] is 3.6.

In the case of `Cc1ncc([N+](=O)[O-])n1CCO` [METRONIDAZOLE], the C50 in the test on Nucleic Acid worked out at 3200 µM; in test [3], 6.5 mM. The Ratio in test [6] was 1.6.

Regarding `Cl.Cn1cc(NC(=O)c2cc(NC(=O)c3ccc([N+](=O)[O-])o3)cn2C)cc1C(=O)NCCC(=N)N`, the C50 is 4.8 µM with Nucleic Acid and below 0.01 mM in [7]. Moreover, the Ratio in [4] is on record as 1.16. The “Ratio (Ci/Ce)” value in test [5] was 9.4.

Take `NC(=O)N/N=C/c1ccc([N+](=O)[O-])o1` [NITROFURAZONE]: the Ratio in test [2] is on record as 1.6. Also, the C50 in the test with Nucleic Acid is above 1000 µM; in [3] it was 0.13 mM.

In the test on Nucleic Acid, `Cn1cc(NC(=O)c2cc(NC(=O)CNC(=N)N)cn2C)cc1C(=O)NCCC(=N)N` showed a C50 of 1.1 µM.

Turning to `COCC(O)Cn1ccnc1[N+](=O)[O-]` (stereo not drawn) [MISONIDAZOLE], the C50 in the test with Nucleic Acid stood at 2700 µM; in test [3], 1.3 mM. Besides, the “Ratio (Ci/Ce)” value in test [5] is given as 0.7.

In the test on Nucleic Acid, `Cn1cc(NC(=O)c2cc(NC(=O)c3cc(NC=O)cn3C)cn2C)cc1C(=O)NCCC(=N)N` yielded a C50 of 1.3 µM.

Regarding `O=C(Cn1ccnc1[N+](=O)[O-])NCCO` [ETANIDAZOLE], the C50 in the test with Nucleic Acid was determined as 3000 µM. Besides, in test [5], the “Ratio (Ci/Ce)” value is 0.4. In [8], the Ratio is recorded as 1.55.
